Laboratory results from patent publication US20250084063A1 (Incyte Corporation, priority 2023, published 2025).

Legend:
Type in all cases: cell-based
MRGPRX2 [1] = target: T1, MRGPRX2 (Homo sapiens, UniProt Q96LB1); experiment: MRGPRX2 IP1 HTRF assay; design: host or cells: CHO-K1; details: CHO-K1 cells stably expressing human MRGPRX2; IP1 accumulation, agonist Cortistatin 14 1 μM
T1 sequence (Q96LB1 1-330): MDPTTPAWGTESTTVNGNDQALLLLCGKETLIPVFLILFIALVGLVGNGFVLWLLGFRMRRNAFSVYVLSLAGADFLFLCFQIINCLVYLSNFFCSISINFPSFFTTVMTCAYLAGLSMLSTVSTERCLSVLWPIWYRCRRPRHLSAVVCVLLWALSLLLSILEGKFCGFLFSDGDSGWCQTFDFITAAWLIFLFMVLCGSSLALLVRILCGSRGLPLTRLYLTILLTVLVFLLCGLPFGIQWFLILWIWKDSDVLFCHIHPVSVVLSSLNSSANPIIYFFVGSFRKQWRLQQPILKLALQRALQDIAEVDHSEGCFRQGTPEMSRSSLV
Excerpt: Example B: MRGPRX2 IP1 HTRF Assay
This assay measures compound inhibition of myo-Inositol 1 phosphate (IP1) accumulation in CHO-K1 cells. Chinese hamster ovary (CHO-K1) cells stably expressing human MRGPRX2 were purchased from GenScript (Piscataway, NJ).
For the HTRF IP1 determination, an IP-One GqKit (Perkin Elmer Cisbio, Waltham, MA), which includes all reagents and buffers in this protocol, was used. The cells were maintained in culture medium (Ham's F-12K) containing 10% (v/v) FBS, and 200 μg/mL Zeocin. For the assay, the cells were harvested and resuspended in culture medium with 2% FBS and without Zeocin, then were passed through a 40 μm filter. Cells were added at 20000 cells in a 5 μL/well to a 384-well white small volume cell culture plate (Greiner VWR, Radnor, PA) which contained 50 nL/well of test compound serially diluted at a selected concentration range in DMSO. 5 μL/well of prepared 2× Stimulation Buffer2 was then added to plates and was incubated at 37° C. with 5% CO2 for 1 h. 5 μL/well of agonist Cortistatin 14 (Bio-TechneR&D Systems, Minneapolis, MN) in 1× Stimulation Buffer 2, for a 1 μM final concentration, was then added to plates and incubated at 37° C. with 5% CO2 for 1 h. 6 μL/well of 1:20 diluted Detection Reagent Mix (d2 and Cryptate) was added to the plates and incubated for 1 h in the dark. Plates were read on the PHERAstar microplate reader (BMG Labtech Cary, NC) to determine the HTRF ratio of the acceptor and donor emission signals. The IP1 concentrations were calculated from a standard curve following the IP-One GQ kit instructions. Wells with DMSO only and wells with high concentration of reference antagonist were used as controls for normalization. Compound IC50 curves were globally fitted with 3- or 4-parameter Hill equation in a Genedata Screener (Genedata Basel, Switzerland).

MRGPRX2 [2] = target: T1, MRGPRX2; experiment: MRGPRX2 β-Arrestin assay; design: host or cells: PathHunter CHO-K1; details: PathHunter CHO-K1 MRGPRX2 β-Arrestin cell line; agonist Cortistatin 14 0.25 μM
Excerpt: Example C: MRGPRX2 β-Arrestin Assay
This assay measures compound inhibition of β-Arrestin recruitment, which is part of the G protein-independent pathway that results from the ligand-activated GPCR phosphorylation by specific GPCR kinases. The PathHunter CHO-K1 MRPGRX2 B-Arrestin Cell line stably expressing ProLink tagged MRGPRX2 and Enzyme Acceptor Tagged B-Arrestin was purchased from Eurofins DiscoverX, (Fremont, CA).
The cells were maintained in culture medium from the Europhins DiscoverX Cell Culture Kit-107 which includes FBS, hygromycin B and G418. For the assay, the cells were harvested and were resuspended with Cell Plating Reagent 2 (Eurofins DiscoverX). Cells were added 10000 cells in 25 µL/well to a 384-well black cell culture plate (Greiner VWR, Radnor, PA) which contained 125 nL/well of compound at a selected serially diluted concentration range or DMSO. The plate was incubated at 37° C. with 5% CO2 for 1 h. 2 μL/well of agonist Cortistatin 14 was diluted in Protein Dilution Buffer, (Eurofins DiscoverX) for a final concentration of 0.25 μM, was added and the plate was incubated at 37° C. with 5% CO2 for 90 min. 14 μL/well of Detection Reagent Mix (PathHunter Detection Kit, Eurofins DiscoverX) was added to the plates and further incubated for 1 h in the dark. Plates were read on the PHERAstar microplate reader (BMG Labtech Cary, NC) measuring luminescence 0.1 to 1 second per well. Data was normalized using DMSO only wells and wells with high concentration of reference antagonist as controls. Compound IC50 curves were globally fitted with 3- or 4-parameter Hill equation in a Genedata Screener (Genedata Basel, Switzerland).

MRGPRX2 [3] = target: T1, MRGPRX2; experiment: MRGPRX2 FLIPR calcium mobilization assay; design: host or cells: CHO-K1; details: CHO-K1 cells stably expressing human MRGPRX2; Ca2+ release, agonist Cortistatin-14 at EC80
Description: Example A. MRGPRX2 FLIPR Calcium Mobilization Assay
Chinese hamster ovary (CHO-K1) cells stably expressing human MRGPRX2 were purchased from Genescript (Piscataway, NJ). The cells were maintained in culture medium (Ham's F-12K) containing 10% (v/v) FBS, 200 μg/mL Zeocin, 100 units/mL penicillin G and 100 μg/mL streptomycin (Life Technologies, Carlsbad, CA). For the assay, the cells were harvested and resuspended with culture medium without Zeocin before plating at 8000 cells per well in 20 μL in 384-well black clear bottom cell culture plates (VWR, Radnor, PA). After 24 h culture at 37° C. and 5% CO2, the cells were loaded with 20 μL/well of calcium dye (FLIPR Calcium 6 Assay Kit, Molecular Devices, San Jose, CA) diluted in loading buffer (1×Hank's Balanced Salt Solution (HBSS), 5 mM probenecid, 20 mM 4-(2-hydroxyethyl)-1-piperazineethanesulfonic acid (HEPES), pH 7.4, VWR, Radnor, PA) followed with 45 min incubation at 37° C. and 40 min at room temperature in the dark. Cells were then treated with the addition of 10 uL/well test compounds with a range of increasing concentrations diluted in the assay buffer (1×HBSS, 20 mM HEPES, pH 7.4, VWR, Radnor, PA) with FLIPR Penta (Molecular Devices. San Jose, CA) and incubated for 30 min. at room temperature. Ca^2+ release was measured with FLIPR Penta with 10 seconds basal fluorescence measurement, then 12.5 μL of 5× agonist Cortistatin-14 (Tocris, Minneapolis, MN) at final concentration corresponding to the EC80 were added followed with continued fluorescence signal monitoring for an additional 110 seconds. The base line adjusted (median of first 10s base line) max value of the Relative Fluorescence Unit (RFU) was plotted against compound concentrations. Wells with no compound were served as the positive controls, and wells with high concentration of reference antagonist were used as negative controls. IC50 curves were globally fitted with 3- or 4-parameter Hill equation in a Genedata Screener (Genedata Basel, Switzerland).

| SMILES | IC50 (MRGPRX2 [1]) | IC50 (MRGPRX2 [2]) | IC50 (MRGPRX2 [3]) |
| --- | --- | --- | --- |
| NC1CC(CNc2cc(C(F)(F)F)nc3ccc(Cl)cc23)(c2ccccc2)C1 (stereo not drawn) [Example 96, N-((3-Amino-1-phenylcyclobutyl)methyl)-6-chloro-2-(trifluoromethyl)quinolin-4-amine] | 0.1 to 100 nM | 0.1 to 100 nM | – |
| O=C(N[C@H]1CC[C@H](O)CC1)N1CCC(CNc2cc(C(F)(F)F)nc3ccc(Cl)cc23)(c2ccc(F)cc2)CC1 [Example 87, 4-(((6-Chloro-2-(trifluoromethyl)quinolin-4-yl)amino)methyl)-4-(4-fluorophenyl)-N-((1r,4r)-4-hydroxycyclohexyl) piperidine-1-carboxamide] | 0.1 to 100 nM | 0.1 to 100 nM | – |
| O=C(O)C1CCC(CNc2cc(C(F)(F)F)nc3ccc(Cl)cc23)(c2ccccc2)CC1 (stereo not drawn) [Example 67, 4-(((6-Chloro-2-(trifluoromethyl)quinolin-4-yl)amino)methyl)-4-phenylcyclohexane-1-carboxylic acid] | 0.1 to 100 nM | 0.1 to 100 nM | – |
| Cc1nc(CN2CC(CNc3cc(C(F)(F)F)nc4ccc(Cl)cc34)(c3ccc(F)cc3)C2)c[nH]1 [Example 94, 6-Chloro-N-((3-(4-fluorophenyl)-1-((2-methyl-1H-imidazol-4-yl)methyl)azetidin-3-yl)methyl)-2-(trifluoromethyl)quinolin-4-amine] | 0.1 to 100 nM | 0.1 to 100 nM | – |
| O=C(N[C@H]1C[C@H](O)C1)N1CCC(CNc2cc(C(F)(F)F)nc3ccc(Cl)cc23)(c2ccc(F)cc2)CC1 [Example 86, 4-(((6-Chloro-2-(trifluoromethyl)quinolin-4-yl)amino)methyl)-4-(4-fluorophenyl)-N-((1r,3r)-3-hydroxycyclobutyl) piperidine-1-carboxamide] | 0.1 to 100 nM | 0.1 to 100 nM | – |
| Fc1ccc(C2(CNc3cc(C(F)(F)F)nc4ccc(Cl)cc34)CN(Cc3cn[nH]c3)C2)cc1 [Example 93, N-((1-((1H-Pyrazol-4-yl)methyl)-3-(4-fluorophenyl)azetidin-3-yl)methyl)-6-chloro-2-(trifluoromethyl)quinolin-4-amine] | 0.1 to 100 nM | 0.1 to 100 nM | – |
| NC(=O)C1(C(=O)NC2CC(CNc3cc(C(F)(F)F)nc4ccc(Cl)cc34)(c3ccccc3)C2)CC1 (stereo not drawn) [Example 74, N-(3-(((6-Chloro-2-(trifluoromethyl)quinolin-4-yl)amino)methyl)-3-phenylcyclobutyl)cyclopropane-1,1-dicarboxamide] | 0.1 to 100 nM | 0.1 to 100 nM | – |
| NS(=O)(=O)NC1CC(CNc2cc(C(F)(F)F)nc3ccc(Cl)cc23)(c2ccccc2)C1 (stereo not drawn) [Example 73, N-((3-Aminosulfonylamino-1-phenylcyclobutyl)methyl)-6-chloro-2-(trifluoromethyl)quinolin-4-amine] | 0.1 to 100 nM | 0.1 to 100 nM | – |
| Nc1nc(N2CCC(CNc3cc(C(F)(F)F)nc4ccc(Cl)cc34)(c3ccccc3)CC2)nn1CCN1CCOCC1 [Example 79, N-((1-(5-Amino-1-(2-morpholinoethyl)-1H-1,2,4-triazol-3-yl)-4-phenylpiperidin-4-yl)methyl)-6-chloro-2-(trifluoromethyl)quinolin-4-amine] | – | 0.1 to 100 nM | 0.1 to 100 nM |

Other lines, results leading:

| IC50 (MRGPRX2 [1]) | IC50 (MRGPRX2 [2]) | IC50 (MRGPRX2 [3]) | SMILES |
| --- | --- | --- | --- |
| 0.1 to 100 nM | 0.1 to 100 nM | – | O=C(N[C@@H]1CC[C@@H](O)C1)N1CC(CNc2cc(C(F)(F)F)nc3ccc(Cl)cc23)(c2ccc(F)cc2)C1 [Example 90, 3-(((6-Chloro-2-(trifluoromethyl)quinolin-4-yl)amino)methyl)-3-(4-fluorophenyl)-N-((1R,3R)-3-hydroxycyclopentyl)azetidine-1-carboxamide] |
| – | 0.1 to 100 nM | 0.1 to 100 nM | NS(=O)(=O)N1CC(CNc2cc(C(F)(F)F)nc3ccc(Cl)cc23)(c2nc3cc(F)ccc3s2)C1 [Example 85, 3-(((6-Chloro-2-(trifluoromethyl)quinolin-4-yl)amino)methyl)-3-(5-fluorobenzo[d]thiazol-2-yl)azetidine-1-sulfonamide] |
| 0.1 to 100 nM | 0.1 to 100 nM | – | O=C(N[C@H]1CC[C@H](O)CC1)N1CC(CNc2cc(C(F)(F)F)nc3ccc(Cl)cc23)(n2cc(F)cn2)C1 [Example 88, 3-(((6-Chloro-2-(trifluoromethyl)quinolin-4-yl)amino)methyl)-3-(4-fluoro-1H-pyrazol-1-yl)-N-((1r,4r)-4-hydroxycyclohexyl)azetidine-1-carboxamide] |
| 0.1 to 100 nM | 0.1 to 100 nM | – | N#C[C@H]1CC[C@H](NC(=O)N2CC(CNc3cc(C(F)(F)F)nc4ccc(Cl)cc34)(c3ccc(F)cc3)C2)CC1 [Example 91, 3-(((6-Chloro-2-(trifluoromethyl)quinolin-4-yl)amino)methyl)-N-((1r,4r)-4-cyanocyclohexyl)-3-(4-fluorophenyl)azetidine-1-carboxamide] |
| 0.1 to 100 nM | 0.1 to 100 nM | – | [2H]C([2H])([2H])NC(=O)N1CC(CNc2cc(C(F)(F)F)nc3ccc(Br)cc23)(n2cc(F)cn2)C1 [Example 97, 3-(((6-Bromo-2-(trifluoromethyl)quinolin-4-yl)amino)methyl)-3-(4-fluoro-1H-pyrazol-1-yl)-N-(methyl-d3)azetidine-1-carboxamide] |
| 0.1 to 100 nM | 0.1 to 100 nM | – | C[C@]1(O)CC[C@@H](NC(=O)N2CC(CNc3cc(C(F)(F)F)nc4ccc(Cl)cc34)(n3cc(F)cn3)C2)CC1 [Example 89, 3-(((6-Chloro-2-(trifluoromethyl)quinolin-4-yl)amino)methyl)-3-(4-fluoro-1H-pyrazol-1-yl)-N-((1s,4s)-4-hydroxy-4-methylcyclohexyl)azetidine-1-carboxamide] |
